Laboratory results from patent US20230257415A1, “COMPOUNDS FOR TREATING CNS DISORDERS” (SAGE THERAPEUTICS, INC., priority 2019, published 2023).
pIC50: −log10 of the molar value.

Molecular target: GABAA receptor
Test: [35S]-TBPS binding assay, rat brain cortical membranes, in the presence of GABA
Settings: inhibition of 3 nM [35S]-TBPS binding, 5 mM GABA, 90 min, room temp
Description: [35S]-t-Butylbicyclophosphorothionate (TBPS) binding assays using rat brain cortical membranes in the presence of 5 mM GABA has been described (Gee et al, J. Pharmacol. Exp. Ther. 1987, 241, 346-353; Hawkinson et al, Mol. Pharmacol. 1994, 46, 977-985; Lewin, A.H et al., Mol. Pharmacol. 1989, 35, 189-194).
Briefly, cortices are rapidly removed following decapitation of carbon dioxide-anesthetized Sprague-Dawley rats (200-250 g). The cortices are homogenized in 10 volumes of ice-cold 0.32 M sucrose using a glass/teflon homogenizer and centrifuged at 1500 x g for 10 min at 4° C. The resultant supernatants are centrifuged at 10,000 x g for 20 min at 4° C. to obtain the P2 pellets. The P2 pellets are resuspended in 200 mM NaCl/50 mM Na-K phosphate pH 7.4 buffer and centrifuged at 10,000 x g for 10 min at 4° C. This washing procedure is repeated twice and the pellets are resuspended in 10 volumes of buffer. Aliquots ([…]) of the membrane suspensions are incubated with 3 nM [^35S]-TBPS and […] aliquots of test drug dissolved in dimethyl sulfoxide (DMSO) (final 0.5%) in the presence of 5 mM GABA. The incubation is brought to a final volume of 1.0 mL with buffer. […] Following a 90 min incubation at room temp, the assays are terminated by filtration through glass fiber filters (Schleicher and Schuell No. 32) using a cell harvester (Brandel) and rinsed three times with ice-cold buffer. Filter bound radioactivity is measured by liquid scintillation spectrometry. Non-linear curve fitting of the overall data for each drug averaged for each concentration is done using Prism (GraphPad). […] The concentration of test compound producing 50% inhibition (IC50) of specific binding and the maximal extent of inhibition (Imax) are determined for the individual experiments with the same model used for the overall data and then the means ± SEM.s of the individual experiments are calculated.
Various compounds are or can be screened to determine their potential as modulators of [^35S]-TBPS binding in vitro. These assays are or can be performed in accordance with the above.

| Structure (SMILES) | pIC50 |
| --- | --- |
| C[C@H](Cn1cc(C#N)cn1)[C@H]1CC[C@H]2[C@@H]3CC=C4CC[C@](C)(O)CC[C@]4(C)[C@H]3CC[C@]12C [Example 18, 1-((S)-2-((1R,3aS,3bS,8S,10aR,10bS,12aS)-8-hydroxy-8,10a,12a-trimethyl-1,2,3,3a,3b,4,6,7,8,9,10,10a,10b,11,12,12a-hexadecahydrocyclohepta[a]cyclopenta[f]naphthalen-1-yl)propyl)-1H-pyrazole-4-carbonitrile] | > 7.00 |
| CCOC[C@@]1(O)CC[C@@H]2C3CC[C@]4(C)[C@@H]([C@H](C)NC(=O)c5ccc(C#N)cc5F)CCC[C@H]4[C@@H]3CC[C@@H]2C1 (some centres unmarked) [Example 55] | 6.00 to 7.00 |
| C[C@@]1(O)CC[C@H]2[C@H](CC[C@@H]3[C@@H]2CC[C@]2(C)[C@@H](CNS(=O)(=O)c4ccccc4)CCC[C@@H]32)C1 [Example 25, N-(((1S,4aS,4bR,6aR,8R,10aS,10bR,12aS)-8-hydroxy-8,12a-dimethyloctadecahydrochrysen-1-yl)methyl)benzenesulfonamide] | > 7.00 |
| CC[C@]12CC[C@H]3[C@@H](CC[C@@H]4C[C@](C)(O)CC[C@@H]43)[C@@H]1CCC[C@@H]2[C@H](C)NC(=O)c1ccc(C#N)cc1 [Example 54, 4-cyano-N-((S)-1-((1S,4aS,4bR,6aR,8R,10aS,10bR,12aS)-12a-ethyl-8-hydroxy-8-methyloctadecahydrochrysen-1-yl)ethyl)benzamide] | 6.00 to 7.00 |
| CC[C@]12CCC3[C@H]4CC[C@](O)(COC)C[C@H]4CC[C@H]3[C@@H]1CCC[C@@H]2CNC(=O)c1ccc(C#N)cc1 (stereo partly drawn) [Example 41, 4-cyano-N-(((1S,4aS,4bR,6aR,8R,10aS,12aS)-12a-ethyl-8-hydroxy-8-(methoxymethyl)octadecahydrochrysen-1-yl)methyl)benzamide] | 6.00 to 7.00 |
| CCC[C@@]1(O)CC[C@@]2(C)[C@@H](CC[C@@H]3[C@@H]2CC[C@]2(C)[C@@H]([C@@H](C)Cn4nnc(C)n4)CCC[C@@H]32)C1 [Example 9, (2R,4aS,4bS,6aS,7R,10aS,10bR,12aS)-4a,6a-dimethyl-7-((R)-1-(5-methyl-2H-tetrazol-2-yl)propan-2-yl)-2-propyloctadecahydrochrysen-2-ol] | 6.00 to 7.00 |
| C[C@@H](Cn1cc(C#N)cn1)[C@H]1CC[C@H]2[C@@H]3CC=C4CC[C@](C)(O)CC[C@]4(C)[C@H]3CC[C@]12C [Example 17, 1-((R)-2-((1R,3aS,3bS,8S,10aR,10bS,12aS)-8-hydroxy-8,10a,12a-trimethyl-1,2,3,3a,3b,4,6,7,8,9,10,10a,10b,11,12,12a-hexadecahydrocyclohepta[a]cyclopenta[f]naphthalen-1-yl)propyl)-1H-pyrazole-4-carbonitrile] | > 7.00 |
| COC[C@@]1(O)CC[C@H]2[C@H](CC[C@@H]3[C@@H]2CC[C@]2(C)[C@@H]([C@@H](C)Cn4cc(C#N)cn4)CCC[C@@H]32)C1 [Example 3, 1-((R)-2-((1R,4aS,4bR,6aR,8R,10aS,10bR,12aS)-8-hydroxy-8-(methoxymethyl)-12a-methyloctadecahydrochrysen-1-yl)propyl)-1H-pyrazole-4-carbonitrile] | > 7.00 |
